Source: US20260124122A1, “QUATERNARY AMMONIUM SILANE AQUEOUS HYDROGEL FORMULATIONS” (priority 2023, published 2026)

Legend:
Assay type in all cases: physicochemical
[1] = Hydrolysis of quaternary ammonium silane, Direct Infusion Mass Spectrometry, ESI+ mode
Procedure: In this example, hydrolysis of Compound VII was evaluated in the mass-spectrometry study (Direct Infusion Mass Spectrometry, ESI+ mode).
In a first experiment, Compound VII was dissolved in propylene glycol and diluted with acetonitrile to a final concentration of 10 μg/mL in the sample. […] Two minor peaks with m/z of 592 (Compound VII) and m/z of 534 (mono-hydrolyzed species of Compound VII) are present at low abundance. […] Exposure time during the HPLC-mass spec analysis is less than 45 seconds, further confirming the rapid hydrolysis of the quaternary ammonium silane upon exposure to water.
In a second experiment, Compound VII was diluted in water to a final concentration of 10 μg/mL in the sample. The mass spectrum of the sample was recorded at a 30-minute time point and is shown FIG. 3. Compound VII was completely hydrolyzed within the 30-minute time frame according to the following reaction scheme:
0.50% of Compound VII was formulated with 2% propylene glycol, 1% HPMC, 0.1% poloxamer 407, 2% PEG, and 94.40% water.

[2] = Dissolution in water and stability of the aqueous solution of the isolated product; details: for dissolution of the product in water: isolated product
[3] = Precipitation on addition to hydrogels containing ionic or non-ionic, carboxylic acid group containing ingredients; details: zinc gluconate, sorbitol, glycerin
Procedure: (§1) 160 mls of distilled water was added to a 250 mL screw-top media bottle. 4 g of Xanthan gum was added slowly under vigorous stirring. The mixture was stirred overnight and the Xanthan gum was fully dissolved, with the mixture homogenous and clear. Zinc gluconate (0.2 g), sorbitol (10 g), glycerin (4 g), and Poloxamer 407 (0.4 g) were added to the mixture and stirred until homogenous and clear. […] At this point the process was stopped.
as §1, with “bottle. 0.2” for “bottle. 4”, “of carbomer copolymer A” for “of Xanthan gum”, “the carbomer copolymer A” for “the Xanthan gum”
as §1, with “bottle. 0.2” for “bottle. 4”, “of carbomer copolymer B” for “of Xanthan gum”, “the carbomer copolymer B” for “the Xanthan gum”
as §1, with “bottle. 0.2” for “bottle. 4”, “of carrageenan” for “of Xanthan gum”, “the carrageenan” for “the Xanthan gum”
as §1, with “bottle. 0.2” for “bottle. 4”, “of carboxymethylcellulose Sodium” for “of Xanthan gum”, “the Carboxymethylcellulose Sodium” for “the Xanthan gum”
as §1, with “bottle. 0.2” for “bottle. 4”, “of Sodium Alginate” for “of Xanthan gum”, “the Sodium Alginate” for “the Xanthan gum”
as §1, with “of HPMC having a viscosity 2600-5600 in H2O (20° C.)” for “of Xanthan gum”, “the HPMC” for “the Xanthan gum”, “and sodium hyaluronate” for “and Poloxamer 407”

CCCCCCCCCCCCCCCCCC[N+](C)(C)CCC[Si](OCC(C)O)(OCC(C)O)OCC(C)O.CS(=O)(=O)[O-] (stereo not shown) [Compound VII, N,N-dimethyl-N-(3-(tris(2-hydroxypropoxy)silyl)propyl)octadecan-1-aminium methane sulfonate]
extent of hydrolysis ([1]; 0.50% formulated with 2% propylene glycol, 1% HPMC, 0.1% poloxamer 407, 2% PEG, 94.40% water): complete hydrolysis | time frame of complete hydrolysis ([1]; diluted in water, 10 μg/mL): ≤ 30 min | extent of hydrolysis ([1]; diluted in water, 30-minute time point): complete hydrolysis | extent of hydrolysis ([1]; in propylene glycol diluted with acetonitrile, 10 μg/mL, 0.1% aqueous formic acid mobile phase, exposure less than 45 seconds): Partial hydrolysis

CCCCCCCCCCCCCCCCCC[N+](C)(C)CCC[Si](OCC(CO)(CO)NCCS(=O)(=O)[O-])(OCC(CO)(CO)NCCS(=O)(=O)O)OCC(CO)(CO)NCCS(=O)(=O)O [Compound XIX, 2-[[1-[[3-[Dimethyl(octadecyl)ammonio]propyl-[3-hydroxy-2-(hydroxymethyl)-2-(2-sulfoethylamino)propoxy]-[3-hydroxy-2-(hydroxymethyl)-2-(2-sulfoethylamino)propoxy]silyl]oxymethyl]-2-hydroxy-1-(hydroxymethyl)ethyl]amino]-ethanesulfonate]
time a solution in water remains clear ([2]; 1% solution in water): > 5 months | dissolution of the fine powder in water ([2]; water, gentle heating): dissolves quickly in water with gentle heating | precipitation on addition to the mixture ([3]; HPMC with sodium hyaluronate): immediate precipitation | precipitation on addition to the mixture ([3]; Sodium Alginate as gelling agent, Poloxamer 407): immediate precipitation | precipitation on addition to the mixture ([3]; Xanthan gum as gelling agent, Poloxamer 407): immediate precipitation | precipitation on addition to the mixture ([3]; carbomer copolymer A as gelling agent, Poloxamer 407): immediate precipitation | precipitation on addition to the mixture ([3]; carbomer copolymer B as gelling agent, Poloxamer 407): immediate precipitation | precipitation on addition to the mixture ([3]; carboxymethylcellulose Sodium as gelling agent, Poloxamer 407): immediate precipitation | precipitation on addition to the mixture ([3]; carrageenan as gelling agent, Poloxamer 407): immediate precipitation

CCCCCCCCCCCCCCCCCC[N+](C)(C)CCC[Si](OCC(C)O)(OCC(C)O)OCC(C)O (stereo not shown) [Example 1, Dimethyl-octadecyl-[3-[tris(2-hydroxypropoxy)silyl]propyl]ammonium chloride]
dissolution of the product in water ([2]; water): dissolved readily in water

CCCCCCCCCCCCCCCCCC[N+](C)(C)CCC[Si](OCC(C)(CO)C(=O)O)(OCC(C)(CO)C(=O)O)OCC(C)(CO)C(=O)O (stereo not shown) [Example 4, Dimethyl-octadecyl-[3-tris(2-carboxy-3-hydroxy-2-methyl-propoxy)silylpropyl]ammonium chloride]
dissolution of the product in water ([2]; water): dissolved readily in water

CCCCCCCCCCCCCCCCCC[N+](C)(C)CCC[Si](OCCCO)(OCCCO)OCCCO [Example 5, Dimethyl-octadecyl-[3-[tris(3-hydroxypropoxy)silyl]propyl]ammonium chloride]
dissolution of the product in water ([2]; water): dissolved readily in water
